{"source": "ChEMBL document CHEMBL1201862", "about": "“PubChem BioAssay data set” (2004)", "key": {"[1]": {"biological_target": "T1, Polyadenylate-binding protein 1 (Homo sapiens, UniProt P11940)", "T1 sequence (P11940 whole entry)": "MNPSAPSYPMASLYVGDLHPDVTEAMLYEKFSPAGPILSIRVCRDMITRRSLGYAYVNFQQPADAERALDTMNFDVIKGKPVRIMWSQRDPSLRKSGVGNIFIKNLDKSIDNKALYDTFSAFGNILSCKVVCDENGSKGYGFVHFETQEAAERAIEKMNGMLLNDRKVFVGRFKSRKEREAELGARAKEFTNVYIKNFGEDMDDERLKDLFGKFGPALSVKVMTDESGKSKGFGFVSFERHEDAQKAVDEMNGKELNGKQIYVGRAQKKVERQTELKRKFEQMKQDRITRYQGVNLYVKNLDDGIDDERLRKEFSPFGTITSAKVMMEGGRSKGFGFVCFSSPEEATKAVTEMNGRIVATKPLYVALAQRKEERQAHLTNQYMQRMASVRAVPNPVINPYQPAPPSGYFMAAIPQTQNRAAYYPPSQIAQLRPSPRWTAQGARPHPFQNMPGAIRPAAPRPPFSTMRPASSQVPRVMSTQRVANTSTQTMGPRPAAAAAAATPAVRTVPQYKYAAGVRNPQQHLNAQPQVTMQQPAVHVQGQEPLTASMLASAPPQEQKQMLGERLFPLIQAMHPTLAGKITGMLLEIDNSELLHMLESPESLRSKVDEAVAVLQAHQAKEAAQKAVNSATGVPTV", "test": "PABP1 MLLE–PAM2 interaction inhibitors, dose response, miRNA deadenylation inhibitor project, biochemical, fluorescence polarization, Cy5-PAM2 peptide, secondary (AID 602260)", "assay_type": "functional", "conditions": "read-out: IC50_Mean"}, "[2]": {"biological_target": "Ras and Rab interactor 1/Tyrosine-protein kinase ABL1 (Homo sapiens, UniProt P00519+Q13671)", "sequence (P00519 whole entry)": "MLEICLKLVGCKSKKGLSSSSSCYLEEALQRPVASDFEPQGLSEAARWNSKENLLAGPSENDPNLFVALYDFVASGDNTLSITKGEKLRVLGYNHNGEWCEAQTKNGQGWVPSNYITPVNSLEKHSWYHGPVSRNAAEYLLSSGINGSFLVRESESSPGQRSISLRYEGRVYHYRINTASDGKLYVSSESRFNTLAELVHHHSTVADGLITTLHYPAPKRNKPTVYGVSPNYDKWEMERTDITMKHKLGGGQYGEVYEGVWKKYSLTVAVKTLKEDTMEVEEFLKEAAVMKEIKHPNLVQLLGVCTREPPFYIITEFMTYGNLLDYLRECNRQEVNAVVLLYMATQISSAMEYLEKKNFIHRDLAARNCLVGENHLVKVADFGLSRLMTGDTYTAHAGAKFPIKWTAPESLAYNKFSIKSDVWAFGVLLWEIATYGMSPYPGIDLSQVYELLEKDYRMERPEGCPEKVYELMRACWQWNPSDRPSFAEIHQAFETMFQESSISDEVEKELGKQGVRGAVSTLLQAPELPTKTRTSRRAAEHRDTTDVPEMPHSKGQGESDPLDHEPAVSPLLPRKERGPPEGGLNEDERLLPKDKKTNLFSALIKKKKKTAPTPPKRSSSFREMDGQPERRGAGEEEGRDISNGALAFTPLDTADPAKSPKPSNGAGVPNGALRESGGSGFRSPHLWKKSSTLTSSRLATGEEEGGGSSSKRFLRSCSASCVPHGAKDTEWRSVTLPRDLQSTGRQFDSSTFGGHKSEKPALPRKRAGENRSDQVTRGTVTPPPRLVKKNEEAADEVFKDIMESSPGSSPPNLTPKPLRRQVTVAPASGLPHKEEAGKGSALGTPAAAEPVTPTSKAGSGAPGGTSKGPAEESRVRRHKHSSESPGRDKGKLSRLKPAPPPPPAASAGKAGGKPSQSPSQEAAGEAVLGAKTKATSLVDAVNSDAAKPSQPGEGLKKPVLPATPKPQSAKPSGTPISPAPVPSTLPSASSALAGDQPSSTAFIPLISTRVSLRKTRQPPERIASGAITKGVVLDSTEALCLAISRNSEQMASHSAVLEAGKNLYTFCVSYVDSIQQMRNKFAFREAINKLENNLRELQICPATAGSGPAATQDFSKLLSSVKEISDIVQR", "sequence (Q13671 whole entry)": "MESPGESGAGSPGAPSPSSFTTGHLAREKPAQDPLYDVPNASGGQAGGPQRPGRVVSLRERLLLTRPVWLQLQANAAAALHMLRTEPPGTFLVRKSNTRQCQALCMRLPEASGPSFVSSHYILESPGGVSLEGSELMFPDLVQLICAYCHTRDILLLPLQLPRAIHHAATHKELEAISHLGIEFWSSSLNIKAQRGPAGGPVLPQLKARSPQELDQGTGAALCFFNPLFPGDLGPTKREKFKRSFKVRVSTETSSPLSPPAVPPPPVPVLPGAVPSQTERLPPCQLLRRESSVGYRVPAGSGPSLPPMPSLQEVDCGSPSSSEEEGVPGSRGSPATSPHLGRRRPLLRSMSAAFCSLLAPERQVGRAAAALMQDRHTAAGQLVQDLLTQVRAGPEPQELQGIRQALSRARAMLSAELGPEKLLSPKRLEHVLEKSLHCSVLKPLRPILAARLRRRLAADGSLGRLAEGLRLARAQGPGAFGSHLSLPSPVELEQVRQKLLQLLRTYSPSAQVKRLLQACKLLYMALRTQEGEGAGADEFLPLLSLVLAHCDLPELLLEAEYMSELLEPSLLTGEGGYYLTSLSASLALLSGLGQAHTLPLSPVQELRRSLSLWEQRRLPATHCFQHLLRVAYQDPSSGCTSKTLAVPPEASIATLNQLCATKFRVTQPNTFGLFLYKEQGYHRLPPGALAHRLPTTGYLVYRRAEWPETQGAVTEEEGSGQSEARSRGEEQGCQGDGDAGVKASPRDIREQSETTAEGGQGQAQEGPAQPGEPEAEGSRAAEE", "assay_type": "functional"}, "[3]": {"biological_target": "T1, Polyadenylate-binding protein 1", "test": "PABP1 MLLE–PAM2 binding inhibitor potency, dose response, biochemical, fluorescence polarization, FITC-PAM2 peptide (AID 602259)", "assay_type": "functional", "conditions": "read-out: IC50_Mean"}, "[4]": {"biological_target": "T2, Oxysterols receptor LXR-beta (Homo sapiens, UniProt P55055)", "T2 sequence (P55055 whole entry)": "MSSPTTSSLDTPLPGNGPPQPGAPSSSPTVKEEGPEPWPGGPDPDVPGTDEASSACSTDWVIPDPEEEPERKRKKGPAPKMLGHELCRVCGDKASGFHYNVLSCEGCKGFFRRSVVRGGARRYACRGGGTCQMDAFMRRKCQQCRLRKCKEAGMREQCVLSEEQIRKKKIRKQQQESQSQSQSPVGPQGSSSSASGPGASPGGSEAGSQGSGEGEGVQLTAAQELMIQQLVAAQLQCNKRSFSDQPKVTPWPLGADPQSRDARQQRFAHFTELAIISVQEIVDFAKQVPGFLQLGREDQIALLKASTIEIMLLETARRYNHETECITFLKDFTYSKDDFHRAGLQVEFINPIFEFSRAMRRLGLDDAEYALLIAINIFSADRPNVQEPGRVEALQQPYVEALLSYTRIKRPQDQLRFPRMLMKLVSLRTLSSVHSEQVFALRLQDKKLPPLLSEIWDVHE", "assay_type": "functional, cell-based"}, "[5]": {"biological_target": "Tyrosine-protein phosphatase non-receptor type 5 (Homo sapiens, UniProt P54829)", "sequence (P54829 whole entry)": "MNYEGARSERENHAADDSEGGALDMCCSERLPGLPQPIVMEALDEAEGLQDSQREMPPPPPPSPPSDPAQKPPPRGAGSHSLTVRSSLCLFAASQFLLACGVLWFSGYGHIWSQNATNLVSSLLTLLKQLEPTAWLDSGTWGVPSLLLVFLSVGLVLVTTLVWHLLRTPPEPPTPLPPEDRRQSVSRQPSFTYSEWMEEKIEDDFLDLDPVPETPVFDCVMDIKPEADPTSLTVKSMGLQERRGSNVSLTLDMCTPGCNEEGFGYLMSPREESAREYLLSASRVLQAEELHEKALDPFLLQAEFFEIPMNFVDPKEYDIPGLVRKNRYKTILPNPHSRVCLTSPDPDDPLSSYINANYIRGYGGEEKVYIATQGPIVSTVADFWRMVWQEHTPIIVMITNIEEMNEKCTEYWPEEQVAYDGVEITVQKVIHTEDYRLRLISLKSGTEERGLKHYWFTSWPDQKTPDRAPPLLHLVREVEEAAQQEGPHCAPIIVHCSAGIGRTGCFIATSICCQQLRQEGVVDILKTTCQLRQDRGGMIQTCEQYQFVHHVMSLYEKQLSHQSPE", "test": "STEP phosphatase inhibitors, confirmation, biochemical, fluorescence intensity, uHTS hits (AID 602372)", "assay_type": "functional", "conditions": "read-out: IC50_Mean"}, "[6]": {"biological_target": "Dual specificity protein phosphatase 3 (Homo sapiens, UniProt P51452)", "sequence (P51452 whole entry)": "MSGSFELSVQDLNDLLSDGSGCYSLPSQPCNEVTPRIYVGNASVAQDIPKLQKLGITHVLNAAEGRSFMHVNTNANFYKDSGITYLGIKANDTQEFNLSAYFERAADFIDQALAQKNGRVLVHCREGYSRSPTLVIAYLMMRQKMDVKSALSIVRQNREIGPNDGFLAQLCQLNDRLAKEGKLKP", "test": "VHR phosphatase inhibition, dose response, selectivity assay for STEP inhibitor project, biochemical (AID 602374)", "assay_type": "functional", "conditions": "read-out: IC50_Mean"}, "[7]": {"biological_target": "Tyrosine-protein phosphatase non-receptor type 11 (Homo sapiens, UniProt Q06124)", "sequence (Q06124 whole entry)": "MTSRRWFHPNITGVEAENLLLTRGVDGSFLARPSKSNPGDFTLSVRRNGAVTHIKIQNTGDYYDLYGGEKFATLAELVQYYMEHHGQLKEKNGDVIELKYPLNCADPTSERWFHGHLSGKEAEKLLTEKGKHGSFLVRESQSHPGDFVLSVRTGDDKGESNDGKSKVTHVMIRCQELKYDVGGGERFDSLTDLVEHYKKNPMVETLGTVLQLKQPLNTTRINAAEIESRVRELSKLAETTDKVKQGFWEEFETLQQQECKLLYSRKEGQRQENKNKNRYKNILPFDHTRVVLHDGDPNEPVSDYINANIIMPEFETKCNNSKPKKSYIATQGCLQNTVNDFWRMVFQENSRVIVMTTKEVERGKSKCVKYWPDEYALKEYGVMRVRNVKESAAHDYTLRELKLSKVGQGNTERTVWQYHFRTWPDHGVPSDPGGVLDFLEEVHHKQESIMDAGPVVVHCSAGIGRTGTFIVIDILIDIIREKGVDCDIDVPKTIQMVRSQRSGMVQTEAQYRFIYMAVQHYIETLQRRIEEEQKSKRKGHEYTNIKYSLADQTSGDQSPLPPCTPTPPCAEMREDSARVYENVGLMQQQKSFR", "test": "SHP2 phosphatase inhibition, dose response, selectivity assay for STEP inhibitor project, biochemical (AID 602367)", "assay_type": "functional", "conditions": "read-out: IC50_Mean"}, "Protein skinhead-1": {"biological_target": "T3, Protein skinhead-1 (Caenorhabditis elegans, UniProt P34707)", "T3 sequence (P34707 whole entry)": "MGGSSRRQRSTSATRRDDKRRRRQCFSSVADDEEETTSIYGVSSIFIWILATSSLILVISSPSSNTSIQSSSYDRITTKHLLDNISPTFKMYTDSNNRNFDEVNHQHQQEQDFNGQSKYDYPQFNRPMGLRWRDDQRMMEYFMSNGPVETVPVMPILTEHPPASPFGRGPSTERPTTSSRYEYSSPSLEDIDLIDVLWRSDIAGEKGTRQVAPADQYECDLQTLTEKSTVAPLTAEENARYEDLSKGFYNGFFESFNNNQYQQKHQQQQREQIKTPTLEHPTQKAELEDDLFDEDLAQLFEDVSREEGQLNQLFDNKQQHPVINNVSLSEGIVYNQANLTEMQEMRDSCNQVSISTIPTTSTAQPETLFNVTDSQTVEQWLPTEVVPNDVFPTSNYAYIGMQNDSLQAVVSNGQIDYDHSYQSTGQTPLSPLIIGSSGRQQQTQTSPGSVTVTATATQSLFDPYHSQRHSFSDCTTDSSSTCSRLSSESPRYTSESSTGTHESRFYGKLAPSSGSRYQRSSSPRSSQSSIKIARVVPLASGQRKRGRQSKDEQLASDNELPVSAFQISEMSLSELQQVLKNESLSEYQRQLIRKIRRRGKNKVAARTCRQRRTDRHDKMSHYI", "assay_type": "functional"}, "[8]": {"biological_target": "T4, Nuclear receptor subfamily 0 group B member 1 (Homo sapiens, UniProt P51843)", "T4 sequence (P51843 whole entry)": "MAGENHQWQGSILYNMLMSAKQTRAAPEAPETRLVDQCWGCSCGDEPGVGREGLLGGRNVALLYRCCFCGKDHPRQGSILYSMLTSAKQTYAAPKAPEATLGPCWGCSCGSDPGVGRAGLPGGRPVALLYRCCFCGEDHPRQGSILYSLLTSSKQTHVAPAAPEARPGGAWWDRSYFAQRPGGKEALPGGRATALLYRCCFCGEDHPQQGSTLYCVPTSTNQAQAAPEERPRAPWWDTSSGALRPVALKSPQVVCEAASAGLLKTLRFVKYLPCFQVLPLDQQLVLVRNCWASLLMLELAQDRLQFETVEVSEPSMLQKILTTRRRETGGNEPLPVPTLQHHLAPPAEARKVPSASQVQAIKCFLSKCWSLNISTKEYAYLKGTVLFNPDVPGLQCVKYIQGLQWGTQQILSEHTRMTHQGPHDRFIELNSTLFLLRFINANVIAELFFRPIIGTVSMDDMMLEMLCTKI", "assay_type": "functional, cell-based"}, "cells": {"test": "cells", "assay_type": "functional, cell-based"}, "[9]": {"test": "THP-1 cell cytotoxicity, dose response, cytotoxicity control for Vif-APOBEC3G degradation inhibitor project, THP-1 cells (AID 1117359)", "assay_type": "functional", "conditions": "Human immunodeficiency virus 1, THP-1"}, "Genome polyprotein": {"biological_target": "Genome polyprotein (dengue virus type 2, UniProt P29990)", "test": "Dengue-2 NS5 methyltransferase inhibitors, primary screen, biochemical, confirmation dose response (AID 588689)", "assay_type": "functional"}, "[10]": {"biological_target": "DNA (cytosine-5)-methyltransferase 1 (Homo sapiens, UniProt P26358)", "test": "DNMT1 methyltransferase inhibitors, confirmation, biochemical, fluorescent molecular beacon (AID 602386)", "assay_type": "functional"}, "[11]": {"biological_target": "Vascular endothelial growth factor receptor 2 (Homo sapiens, UniProt P35968)", "assay_type": "functional"}, "Aurora kinase B": {"biological_target": "Aurora kinase B (Homo sapiens, UniProt Q96GD4)", "sequence (Q96GD4 whole entry)": "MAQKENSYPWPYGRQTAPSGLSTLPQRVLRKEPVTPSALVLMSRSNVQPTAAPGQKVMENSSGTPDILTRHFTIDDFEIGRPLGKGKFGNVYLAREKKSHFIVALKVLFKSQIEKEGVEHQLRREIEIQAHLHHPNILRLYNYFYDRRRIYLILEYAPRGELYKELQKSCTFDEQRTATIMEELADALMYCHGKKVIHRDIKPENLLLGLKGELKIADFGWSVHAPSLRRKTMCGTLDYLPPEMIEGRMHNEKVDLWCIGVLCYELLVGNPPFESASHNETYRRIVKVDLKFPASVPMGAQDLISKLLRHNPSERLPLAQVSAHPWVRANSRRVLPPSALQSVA", "assay_type": "functional"}, "Aurora kinase A": {"biological_target": "T5, Aurora kinase A (Homo sapiens, UniProt O14965)", "T5 sequence (O14965 whole entry)": "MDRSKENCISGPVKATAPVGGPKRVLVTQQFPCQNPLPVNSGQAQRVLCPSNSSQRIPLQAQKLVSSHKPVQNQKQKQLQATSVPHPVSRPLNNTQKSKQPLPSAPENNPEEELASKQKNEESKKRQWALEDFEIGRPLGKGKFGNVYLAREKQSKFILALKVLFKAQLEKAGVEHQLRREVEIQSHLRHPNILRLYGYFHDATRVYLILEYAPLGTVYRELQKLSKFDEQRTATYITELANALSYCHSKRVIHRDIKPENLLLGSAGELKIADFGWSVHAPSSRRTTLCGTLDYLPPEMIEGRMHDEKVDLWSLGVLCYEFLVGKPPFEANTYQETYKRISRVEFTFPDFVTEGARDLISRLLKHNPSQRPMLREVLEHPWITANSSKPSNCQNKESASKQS", "assay_type": "functional"}, "[12]": {"test": "miR-122 activators in hepatoma reporter cells, dose response, cell-based, Huh7 psiCHECK-miR122, Renilla luciferase, cherry-picked (AID 651956);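 note: huh7 hepatoma cells stably carrying a psiCHECK-2 miR-122 sensor plasmid; renilla luciferase signal reporting endogenous miR-122 activity after 48 h compound exposure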", "assay_type": "functional"}, "[13]": {"test": "CEM21 lymphoblast cell cytotoxicity, dose response, cytotoxicity control for viral fusion inhibitor project, CellTiter-Glo luminescence, cherry-picked (AID 652042);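 note: potency for signal decrease meaning cytotoxicity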", "assay_type": "functional, cell-based"}, "[14]": {"test": "inhibitors of HIV Env-driven cell fusion, dose response, cherry-pick (AID 652057)", "assay_type": "functional, cell-based"}, "[15]": {"test": "inhibitors of clade B AD8 Env fusion, dose response, cell-based, cherry-pick (AID 652062);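 note: potency is for inhibitors of fusion seen as a drop in luminescence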", "assay_type": "functional"}, "[16]": {"biological_target": "Protein disulfide-isomerase (Homo sapiens, UniProt P07237)", "sequence (P07237 whole entry)": "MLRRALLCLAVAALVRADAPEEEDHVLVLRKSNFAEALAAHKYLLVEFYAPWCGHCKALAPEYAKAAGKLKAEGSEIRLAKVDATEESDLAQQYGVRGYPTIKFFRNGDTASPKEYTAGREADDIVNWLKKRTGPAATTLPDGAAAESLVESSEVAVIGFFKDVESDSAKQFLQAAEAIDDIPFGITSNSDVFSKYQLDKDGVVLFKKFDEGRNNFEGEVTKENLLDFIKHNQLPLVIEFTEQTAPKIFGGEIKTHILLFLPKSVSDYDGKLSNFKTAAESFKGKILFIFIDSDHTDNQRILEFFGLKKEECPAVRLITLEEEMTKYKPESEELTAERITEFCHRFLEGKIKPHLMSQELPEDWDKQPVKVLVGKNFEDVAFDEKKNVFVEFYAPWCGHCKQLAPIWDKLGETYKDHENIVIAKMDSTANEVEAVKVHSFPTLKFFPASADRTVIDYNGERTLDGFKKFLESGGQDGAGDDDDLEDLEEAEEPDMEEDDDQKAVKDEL", "test": "PDI inhibitors, insulin turbidity readout, confirmation, biochemical, dry powder samples, set 2 (AID 652146)"}}, "note": "Calls of active or inactive are those of the source.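 Throughout, for EC50: agonist activity at LXR measured by a cell-based luminescence readout across a dose range, run as a counterscreen for daf-12 agonists; HEK293 cells with Gal4-LXR fusion and GAL4-driven luciferase reporter; potency for activation of Gal4-LXR reporter so compounds are agonists.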", "data": [{"compound": "CCOC(=O)CCCCC(=O)c1[nH]c(O)nc1CSc1nc(O)c(C#N)c(-c2ccccc2)n1", "values": [{"measurement": "IC50", "setting": "[1]", "result": "> 66 µM (inactive)"}, {"measurement": "IC50", "setting": "[2]", "result": "1.45 µM (active)"}, {"measurement": "IC50", "setting": "[3]", "result": "> 66 µM (inactive)"}]}, {"compound": "c1ccc([C@H]2CN3C(=N2)Sc2ccccc23)cc1", "values": [{"measurement": "EC50", "setting": "[4]", "result": "> 67.1 µM (inactive)"}]}, {"compound": "CCOC(=O)CCCCC(=O)c1[nH]c(O)nc1Cn1cnc2ccccc21", "values": [{"measurement": "IC50", "setting": "[2]", "result": "1.86 µM (active)"}]}, {"compound": "COc1cccc(-c2cc(C(=O)Nc3nc4ccccc4s3)c3ccccc3n2)c1", "values": [{"measurement": "IC50", "setting": "[5]", "result": "23.2 µM (inactive)"}, {"measurement": "IC50", "setting": "[6]", "result": "1.62 µM (active)"}, {"measurement": "IC50", "setting": "[7]", "result": "8.43 µM (active)"}, {"measurement": "IC50", "setting": "Protein skinhead-1", "result": "> 100 µM (inactive)"}]}, {"compound": "COC(=O)C1CCC(=O)N1C(c1ccc(OC)cc1)c1cc(OC)c(OC)c(OC)c1", "note": "(stereo not drawn)", "values": [{"measurement": "IC50", "setting": "[8]", "result": "> 67.5 µM (inactive)"}, {"measurement": "IC50", "setting": "cells", "result": "> 67.5 µM (inactive)"}]}, {"compound": "O=C1C=C(N2CC2)c2ccccc2C1=O", "values": [{"measurement": "CC50", "setting": "[9]", "result": "32.7 µM (active)"}, {"measurement": "IC50", "setting": "Protein skinhead-1", "result": "> 100 µM (inactive)"}, {"measurement": "IC50", "setting": "Genome polyprotein", "result": "29.7 µM (active)"}, {"measurement": "IC50", "setting": "[10]", "result": "1.87 µM (active)"}]}, {"compound": "O=C1Nc2ccccc2Nc2cc(-c3ccccc3O)ccc21", "values": [{"measurement": "Ki", "setting": "[11]", "result": "0.0794 µM (active)"}, {"measurement": "Ki", "setting": "Aurora kinase B", "result": "> 2.51 µM (inactive)"}, {"measurement": "Ki", "setting": "Aurora kinase A", "result": "> 2 µM (inactive)"}]}, {"compound": "CCNC(=O)C[C@@H]1CC[C@@H]2[C@@H](COc3ccc(NC(=O)C4CCCCC4)cc3C(=O)N2C)O1", "values": [{"measurement": "AC50", "setting": "[12]", "result": "33.4 µM (active)"}]}, {"compound": "C[C@H](CO)N1C[C@H](C)[C@H](CN(C)S(=O)(=O)c2ccccc2)Oc2ccc(NC(=O)Nc3ccc4c(c3)OCO4)cc2CC1=O", "values": [{"measurement": "AC50", "setting": "[13]", "result": "58.4 µM (active)"}, {"measurement": "AC50", "setting": "[14]", "result": "< 0.26 µM (active)"}, {"measurement": "AC50", "setting": "[15]", "result": "1.15 µM (active)"}]}, {"compound": "CCOC(=O)C1(CCOC)CCCN(Cc2ccc(Cl)cc2)C1", "note": "(stereo not drawn)", "values": [{"measurement": "AC50", "setting": "[16]", "result": "> 30 µM (inactive)"}]}]}
